Tests used:
[1] = target: T1, Recombinant STAT6 protein (STAT6(W123-T658)) (Homo sapiens, UniProt P42226); experiment: STAT6 Fluorescence Polarization (FP) Assay; type: binding; details: STAT6(W123-T658) 250 nM, probe 5-FAM-ApYKPFQDLI-NH2 2 nM, 45-minute incubation
T1 construct: STAT6(W123-T658)
T1 sequence (P42226 123-658): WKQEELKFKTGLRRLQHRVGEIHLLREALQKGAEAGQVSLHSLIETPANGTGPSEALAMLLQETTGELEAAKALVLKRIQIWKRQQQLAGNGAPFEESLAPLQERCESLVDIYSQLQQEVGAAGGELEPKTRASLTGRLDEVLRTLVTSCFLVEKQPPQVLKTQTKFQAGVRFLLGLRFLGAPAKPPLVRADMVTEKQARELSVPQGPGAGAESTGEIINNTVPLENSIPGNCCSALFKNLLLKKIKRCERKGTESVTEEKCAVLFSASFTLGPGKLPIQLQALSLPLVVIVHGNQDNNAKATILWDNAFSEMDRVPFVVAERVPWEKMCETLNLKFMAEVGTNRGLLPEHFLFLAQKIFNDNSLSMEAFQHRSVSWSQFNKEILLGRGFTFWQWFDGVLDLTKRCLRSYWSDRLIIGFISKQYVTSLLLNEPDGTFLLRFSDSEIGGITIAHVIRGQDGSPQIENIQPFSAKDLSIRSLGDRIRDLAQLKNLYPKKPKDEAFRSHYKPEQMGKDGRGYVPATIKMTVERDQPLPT
Protocol: STAT6 Fluorescence Polarization (FP) Assay
An FP assay was developed to determine IC50 values for test substances. Recombinant STAT6 protein (STAT6(W123-T658)) at 250 nM was combined with a fluorescently labeled, phosphotyrosine peptide probe (5-FAM-ApYKPFQDLI-NH2) at 2 nM in FP buffer (10 mM HEPES pH 7.4, 50 mM NaCl, 1 mM EDTA, 0.05% Tween 20, 2 mM DTT). 50 μL of STAT6-probe mixture was added to serial diluted compounds in black, 96-well plates (Greiner BioOne 655076) to a final concentration of 1% DMSO. Reaction components were mixed, and FP was measured after 45-minute incubation at room temperature using a Tecan Spark multimode plate reader. FP signal (mP) was plotted against the log concentration of the test substances and IC50 values were calculated by nonlinear regression analysis using GraphPad Prism software. For STAT6 FP assay, A=≤300 nM; B=>300-3000 nM; C=>3-30 μM; and D=>30 μM.

[2] = target: T2, Recombinant STAT3 protein (STAT3(G127-I722)) (Homo sapiens, UniProt P40763); experiment: STAT3 Fluorescence Polarization (FP) Assay; type: binding; details: STAT3(G127-I722) 25 nM, probe 5-FAM-GpYLPQTV-NH2 2 nM, 45-minute incubation
T2 construct: STAT3(G127-I722)
Protocol: STAT3 Fluorescence Polarization (FP) Assay
An FP assay was developed to determine IC50 values for test substances. Recombinant STAT3 protein (STAT3(G127-I722)) at 25 nM was combined with a fluorescently labeled, phosphotyrosine peptide probe (5-FAM-GpYLPQTV-NH2) at 2 nM in FP buffer (10 mM HEPES pH 7.4, 50 mM NaCl, 1 mM EDTA, 0.05% Tween 20, 2 mM DTT). 50 μL of STAT3-probe mixture was added to serial diluted compounds in black, 96-well plates (Greiner BioOne 655076) to a final concentration of 1% DMSO. Reaction components were mixed, and FP was measured after 45-minute incubation at room temperature using a Tecan Spark multimode plate reader. FP signal (mP) was plotted against the log concentration of the test substances and IC50 values were calculated by nonlinear regression analysis using GraphPad Prism software. For STAT3 FP assay, A=≤100 nM; B=>100-1000 nM; C=>1-10 μM; and D=>10 μM.

T2 sequence (P40763 127-722, species assumed): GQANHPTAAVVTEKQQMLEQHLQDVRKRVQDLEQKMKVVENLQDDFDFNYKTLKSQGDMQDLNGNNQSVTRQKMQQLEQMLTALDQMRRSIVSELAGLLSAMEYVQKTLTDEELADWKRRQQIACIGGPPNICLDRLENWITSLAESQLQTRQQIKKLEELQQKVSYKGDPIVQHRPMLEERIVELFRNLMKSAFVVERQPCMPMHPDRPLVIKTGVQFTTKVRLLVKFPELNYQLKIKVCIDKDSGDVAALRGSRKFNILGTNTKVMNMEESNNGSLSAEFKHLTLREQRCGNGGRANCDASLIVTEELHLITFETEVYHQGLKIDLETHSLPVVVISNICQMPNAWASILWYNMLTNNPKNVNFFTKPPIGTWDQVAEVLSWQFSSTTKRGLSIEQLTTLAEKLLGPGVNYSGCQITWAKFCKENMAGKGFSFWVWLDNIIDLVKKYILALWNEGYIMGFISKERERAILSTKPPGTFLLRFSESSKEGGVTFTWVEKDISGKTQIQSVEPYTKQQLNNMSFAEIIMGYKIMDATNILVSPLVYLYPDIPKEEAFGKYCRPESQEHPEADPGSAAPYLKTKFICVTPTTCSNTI

Row | IC50 [1] | IC50 [2] | Structure (SMILES)
1 | ≤ 300 nM | 100 to 1000 nM | N#C[C@@H]1CN(C(=O)[C@@H]2CC[C@@H]3C[C@H]4C[C@H]4C[C@H](NC(=O)c4cc5cc(C(F)(F)P(=O)(O)O)ccc5s4)C(=O)N32)C[C@H]1c1ccccc1 (relative stereo) [Compound 10, ((2-(((3S,6S,7aS,8aR,9aR)-3-((rel-trans)-3-cyano-4-phenylpyrrolidine-1-carbonyl)-5-oxodecahydro-1H-cyclopropa[d]pyrrolo[1,2-a]azocin-6-yl)carbamoyl)benzo[b]thiophen-5-yl)difluoromethyl)phosphonic acid]
2 | ≤ 300 nM | 100 to 1000 nM | N#C[C@@H]1CN(C(=O)[C@@H]2CC[C@@H]3C[C@@H]4C[C@@H]4C[C@H](NC(=O)c4cc5cc(C(F)(F)P(=O)(O)O)ccc5s4)C(=O)N32)C[C@H]1c1ccccc1 (relative stereo) [Compound 11, ((2-(((3S,6S,7aR,8aS,9aR)-3-((rel-trans)-3-cyano-4-phenylpyrrolidine-1-carbonyl)-5-oxodecahydro-1H-cyclopropa[d]pyrrolo[1,2-a]azocin-6-yl)carbamoyl)benzo[b]thiophen-5-yl)difluoromethyl)phosphonic acid]
3 | 3000 to 30000 nM | 100 to 1000 nM | O=C(N[C@H]1C[C@@H]2C[C@@H]2C[C@H]2CC[C@@H](C(=O)N3CC[C@@H](C(=O)N4CCOCC4)C3)N2C1=O)c1cc2cc(C(F)(F)P(=O)(O)O)ccc2s1 (single isomer, unassigned) [Compound 98]
4 | 3000 to 30000 nM | 100 to 1000 nM | O=C(N[C@H]1C[C@@H]2C[C@@H]2C[C@H]2CC[C@@H](C(=O)N3CC[C@H](C(=O)N4CCOCC4)C3)N2C1=O)c1cc2cc(C(F)(F)P(=O)(O)O)ccc2s1 (single isomer, unassigned) [Compound 99]
5 | 3000 to 30000 nM | < 100 nM | O=C(N[C@H]1C[C@H]2C[C@H]2C[C@H]2CC[C@@H](C(=O)N3CC(c4ccon4)C3)N2C1=O)c1cc2cc([C@@H](F)P(=O)(O)O)ccc2s1 (single isomer, unassigned) [Example 344]
6 | 3000 to 30000 nM | < 100 nM | CCc1ccncc1C1CN(C(=O)[C@@H]2CC[C@@H]3C[C@@H]4C[C@@H]4C[C@H](NC(=O)c4cc5cc([C@H](F)P(=O)(O)O)ccc5s4)C(=O)N32)C1 (single isomer, unassigned) [Example 345]
7 | 3000 to 30000 nM | < 100 nM | O=C(N[C@H]1C[C@H]2C[C@H]2C[C@H]2CC[C@@H](C(=O)N3CC(c4ccon4)C3)N2C1=O)c1cc2cc([C@H](F)P(=O)(O)O)ccc2s1 (single isomer, unassigned) [Example 346]
8 | 3000 to 30000 nM | < 100 nM | COc1ccncc1C1CN(C(=O)[C@@H]2CC[C@@H]3C[C@@H]4C[C@@H]4C[C@H](NC(=O)c4cc5cc([C@H](F)P(=O)(O)O)ccc5s4)C(=O)N32)C1 (single isomer, unassigned) [Example 353]
9 | > 30000 nM | < 100 nM | COc1ccncc1C1CN(C(=O)[C@@H]2CC[C@@H]3C[C@@H]4C[C@@H]4C[C@H](NC(=O)c4cc5cc([C@@H](F)P(=O)(O)O)ccc5s4)C(=O)N32)C1 (single isomer, unassigned) [Example 354]
10 | 300 to 3000 nM | < 100 nM | N#CC1(c2ccccn2)CN(C(=O)[C@@H]2CC[C@@H]3C[C@@H]4C[C@@H]4C[C@H](NC(=O)c4cc5cc([C@H](F)P(=O)(O)O)ccc5s4)C(=O)N32)C1 (single isomer, unassigned) [Example 355]
11 | 3000 to 30000 nM | < 100 nM | N#CC1(c2ccccn2)CN(C(=O)[C@@H]2CC[C@@H]3C[C@@H]4C[C@@H]4C[C@H](NC(=O)c4cc5cc([C@@H](F)P(=O)(O)O)ccc5s4)C(=O)N32)C1 (single isomer, unassigned) [Example 356]
12 | 3000 to 30000 nM | < 100 nM | CCc1ccncc1C1CN(C(=O)[C@@H]2CC[C@@H]3C[C@@H]4C[C@@H]4C[C@H](NC(=O)c4cc5cc([C@@H](F)P(=O)(O)O)ccc5s4)C(=O)N32)C1 (single isomer, unassigned) [Example 357]
13 | 3000 to 30000 nM | < 100 nM | Cc1cccc(C2CN(C(=O)[C@@H]3CC[C@@H]4C[C@@H]5C[C@@H]5C[C@H](NC(=O)c5cc6cc([C@H](F)P(=O)(O)O)ccc6s5)C(=O)N43)C2)n1 (single isomer, unassigned) [Example 370]
14 | 3000 to 30000 nM | < 100 nM | Cc1cccc(C2CN(C(=O)[C@@H]3CC[C@@H]4C[C@@H]5C[C@@H]5C[C@H](NC(=O)c5cc6cc([C@@H](F)P(=O)(O)O)ccc6s5)C(=O)N43)C2)n1 (single isomer, unassigned) [Example 371]
15 | > 30000 nM | < 100 nM | O=C(N[C@H]1C[C@H]2C[C@H]2C[C@H]2CC[C@@H](C(=O)N3CC(c4cnccc4N4CCOCC4)C3)N2C1=O)c1cc2cc([C@@H](F)P(=O)(O)O)ccc2s1 (single isomer, unassigned) [Example 391]
16 | 3000 to 30000 nM | < 100 nM | CN(C)c1ccncc1C1CN(C(=O)[C@@H]2CC[C@@H]3C[C@@H]4C[C@@H]4C[C@H](NC(=O)c4cc5cc([C@@H](F)P(=O)(O)O)ccc5s4)C(=O)N32)C1 (single isomer, unassigned) [Example 394]
17 | 3000 to 30000 nM | < 100 nM | O=C(N[C@H]1C[C@@H]2C[C@@H]2CC2CC[C@@H](C(=O)N3CC(c4cncnc4N4CCC4)C3)N2C1=O)c1cc2cc([C@@H](F)P(=O)(O)O)ccc2s1 (single isomer, unassigned) [Example 401]
18 | 300 to 3000 nM | < 100 nM | O=C(N[C@H]1C[C@@H]2C[C@@H]2CC2CC[C@@H](C(=O)N3CC(c4cncnc4N4CCC4)C3)N2C1=O)c1cc2cc([C@H](F)P(=O)(O)O)ccc2s1 (single isomer, unassigned) [Example 402]
19 | 3000 to 30000 nM | < 100 nM | CN1CCN(c2ccncc2C2CN(C(=O)[C@@H]3CC[C@@H]4C[C@H]5C[C@H]5C[C@H](NC(=O)c5cc6cc([C@H](F)P(=O)(O)O)ccc6s5)C(=O)N43)C2)CC1 (single isomer, unassigned) [Example 403]
20 | > 30000 nM | < 100 nM | CN1CCN(c2ccncc2C2CN(C(=O)[C@@H]3CC[C@@H]4C[C@H]5C[C@H]5C[C@H](NC(=O)c5cc6cc([C@@H](F)P(=O)(O)O)ccc6s5)C(=O)N43)C2)CC1 (single isomer, unassigned) [Example 404]
21 | 3000 to 30000 nM | < 100 nM | O=C(N[C@H]1C[C@@H]2C[C@@H]2C[C@H]2CC[C@@H](C(=O)N3CC(c4cnccc4N4CCOCC4)C3)N2C1=O)c1cc2cc([C@@H](F)P(=O)(O)O)ccc2s1 (single isomer, unassigned) [Example 405]

Row | Structure (SMILES) | IC50 [1] | IC50 [2]
22 | N#C[C@H]1CN(C(=O)[C@@H]2CC[C@@H]3C[C@H]4C[C@H]4C[C@H](NC(=O)c4cc5cc(C(F)(F)P(=O)(O)O)ccc5s4)C(=O)N32)C[C@@]12C(=O)Nc1ccccc12 (single isomer, unassigned) [Compound 27] | 300 to 3000 nM | 100 to 1000 nM
23 | N#C[C@@H]1CN(C(=O)[C@@H]2CC[C@@H]3C[C@H]4C[C@H]4C[C@H](NC(=O)c4cc5cc(C(F)(F)P(=O)(O)O)ccc5s4)C(=O)N32)C[C@]12C(=O)Nc1ccccc12 (single isomer, unassigned) [Compound 28] | ≤ 300 nM | < 100 nM
24 | N#C[C@@H]1CN(C(=O)[C@@H]2CC[C@@H]3[C@H]4C[C@H]4C[C@H](NC(=O)c4cc5cc(C(F)(F)P(=O)(O)O)ccc5s4)C(=O)N32)C[C@H]1c1ccccc1 (single isomer, unassigned) [Compound 66, ((2-(((3S,6S,7aS,8aS,8bR)-3-((3S,4R or 3R,4S)-3-cyano-4-phenylpyrrolidine-1-carbonyl)-5-oxodecahydrocyclopropa[c]pyrrolo[1,2-a]azepin-6-yl)carbamoyl)benzo[b]thiophen-5-yl)difluoromethyl)phosphonic acid] | ≤ 300 nM | 1000 to 10000 nM

From patent US20250215030A1, “STAT MODULATORS AND USES THEREOF” (Recludix Pharma, Inc., priority 2022, published 2025)
